# pKi: −log10 of the molar value.
# Legend:
# Type in all cases: binding
# cow CD23 CRD [1] = target: T1, cow CD23 CRD (Bos taurus, UniProt E1BIQ4); assay: solid-phase competition with horseradish peroxidase reporter, immobilized biotin-tagged CRD; details: pH 7.8, 2.5 mM CaCl2, 150 mM NaCl, 4 °C; competitive
# T1 construct: gene FCER2; untagged for crystals; C-terminal biotinylation tag LNDIFEAQKIEWHE for solid-phase assays
# T1 sequence (E1BIQ4 169-302): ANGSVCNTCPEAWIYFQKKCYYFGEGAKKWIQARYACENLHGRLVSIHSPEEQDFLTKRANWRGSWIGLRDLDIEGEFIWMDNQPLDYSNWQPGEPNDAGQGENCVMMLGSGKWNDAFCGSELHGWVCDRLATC
# mouse CD23 CRD = target: T2, mouse CD23 CRD (Mus musculus, UniProt P20693); assay: as above; details: pH 7.8, 2.5 mM CaCl2, 150 mM NaCl, 4 °C, competitive, KI approximates KD
# T2 construct: gene Fcer2
# T2 sequence (P20693 185-298 limits assumed): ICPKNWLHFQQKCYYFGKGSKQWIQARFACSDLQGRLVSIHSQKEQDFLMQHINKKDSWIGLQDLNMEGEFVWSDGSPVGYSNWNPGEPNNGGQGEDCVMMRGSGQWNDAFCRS
# cow CD23 CRD [2] = target: T1, cow CD23 CRD; assay: as above; details: pH 7.8, 2.5 mM CaCl2, 150 mM NaCl, 4 °C, competitive, KI approximates KD
# Text: solid-phase competition with horseradish peroxidase reporter, immobilized biotin-tagged CRD on cow CD23 CRD | The three monosaccharides with highest affinity are mannose, fucose, and GlcNAc
# cow CD23 CRD [3] = target: T1, cow CD23 CRD; assay: solid-phase competition with horseradish peroxidase reporter, immobilized biotin-tagged CRD; also crystal structure at […] Å (untagged CRD)
# [4] = may have been tested as methyl glycoside
SMILES,pKi (mouse CD23 CRD),pKi (cow CD23 CRD [2]),further results
CC(=O)N[C@H]1[C@H](O[C@H]2[C@H](O)[C@@H](NC(C)=O)C(O)O[C@@H]2CO)O[C@H](CO)[C@@H](O[C@@H]2O[C@H](CO[C@H]3O[C@H](CO[C@H]4O[C@H](CO)[C@@H](O)[C@H](O)[C@@H]4O[C@H]4O[C@H](CO)[C@@H](O)[C@H](O)[C@@H]4O)[C@@H](O)[C@H](O[C@H]4O[C@H](CO)[C@@H](O)[C@H](O)[C@@H]4O[C@H]4O[C@H](CO)[C@@H](O)[C@H](O)[C@@H]4O)[C@@H]3O)[C@@H](O)[C@H](O[C@H]3O[C@H](CO)[C@@H](O)[C@H](O)[C@@H]3O[C@H]3O[C@H](CO)[C@@H](O)[C@H](O)[C@@H]3O[C@H]3O[C@H](CO)[C@@H](O)[C@H](O)[C@@H]3O)[C@@H]2O)[C@@H]1O (some centres unmarked) [Man9GlcNAc2],,,ratio of affinities relative to α-methyl mannoside (cow CD23 CRD [1]): 240 ± 50 fold
OC[C@H]1OC(O)[C@@H](O)[C@@H](O)[C@@H]1O (some centres unmarked) [mannose],2.24,2.80,
C[C@@H]1OC(O)[C@@H](O)[C@H](O)[C@@H]1O (some centres unmarked) [fucose],,,pKi (mouse CD23 CRD; [4]): 2.08; pKi (cow CD23 CRD [2]; [4]): 2.74
CO[C@H]1O[C@H](CO)[C@@H](O)[C@H](O)[C@@H]1O [α-methyl mannoside],,,pKi (cow CD23 CRD [3]): 2.80
CC(=O)N[C@H]1C(O)O[C@H](CO)[C@@H](O)[C@@H]1O (some centres unmarked) [GlcNAc],2.28,2.96,

# Source: paper PMC6791321, “CD23 is a glycan-binding receptor in some mammalian species” (The Journal of Biological Chemistry, 2019)
